Columns and labels:
dopamine transporter = molecular target: T1, dopamine transporter (Rattus norvegicus, UniProt P23977); assay: Dopamine transporter binding assay ([3H]GBR12935, rat striatal membranes); conditions: 10 μM test compound, radioligand [3H]GBR12935 1.0 nM, 25° C., 45 minutes
T1 construct: The receptor source was rat striatal membranes; from tissue; host or cells: striatum of male SD rats (Orient Korea), membrane preparation
Procedure: Rats (SD-rat, Orient Korea, male, 200-250 g) were sacrificed by decapitation. The striata were removed immediately and then stored at −80° C. until used. On the day of the manipulation, the striata were thawed and suspended in 20 volumes of buffer containing 50 mM Tris-HCl and 120 mM NaCl (pH 7.7). The suspension then was centrifuged at 17,700 rpm for 20 minutes. The pellet was resuspended in 20 volumes of the buffer and centrifuged at 17,700 rpm for 20 minutes. This procedure was repeated once more. The pellet obtained was resuspended in a few ml of the buffer and then homogenized. The concentration of the receptor source was determined by Lowry et al., 1951, J. Biol. Chem. 193:265-275.
Dopamine Transporter Assay Protocol
The dopamine reuptake transporter binding assay was performed according to the methods described in Madras et al., 1989, Mol. Pharmacol. 36(4):518-524, and Javitch et al., 1984, Mol. Pharmacol. 26(1):35-44. The receptor source was rat striatal membranes; the radioligand was GBR12935 [prolyene-2,3-^3H] […]

mice = assay: Locomotor activity test (LMA); assay type: in vivo; conditions: ip, LMA measured 30 minutes after dosing, counts for 10 minutes, percent change from control
From the text: Psychostimulant activity was examined through the locomotor activity test (LMA). The LMA is a behavioral test developed to predict the efficacy of psychostimulants. The LMA is an attractive test for psychostimulants because it is sensitive and specific. All of the major classes of psychostimulants enhance ambulatory activities in the LMA, including methylphenidate, amphetamine, and many other psychostimulants.
Sixteen (16) mice (3 weeks CrjBgi:CD-1 (ICR) and 8 weeks C57BL/6) were purchased from Orient Bio Inc. (Gyeonggi-do, Korea). The mice were divided into a control group and a drug-treated group (eight (8) mice per group) by a block randomization method. Each of the group was placed in an empty cage and bred under environmental conditions of 19-25° C. with a relative humidity of 40-60% and a lighting cycle of 12 hr light/12 hr dark. Diet and water were supplied ad libitum. After one week of acclimation, the LMA test was carried out. The mice were habituated for over 1 hour in an LMA room before starting the LMA test. After habituation, the test compounds (10 or 30 mg/kg) were administered to the drug-treated group by intraperitoneal injection. At 30 minutes after i.p. dosing, LMA was measured using automated photobeams, Opto-Varimax® (Columbus Instruments, Ohio, US) and recorded on a computer. The total locomoter counts for each mouse were recorded for 10 minutes.
Statistical mean values for control and drug-treated groups were calculated and the percent changes from control were determined.

T1 sequence (P23977 whole entry): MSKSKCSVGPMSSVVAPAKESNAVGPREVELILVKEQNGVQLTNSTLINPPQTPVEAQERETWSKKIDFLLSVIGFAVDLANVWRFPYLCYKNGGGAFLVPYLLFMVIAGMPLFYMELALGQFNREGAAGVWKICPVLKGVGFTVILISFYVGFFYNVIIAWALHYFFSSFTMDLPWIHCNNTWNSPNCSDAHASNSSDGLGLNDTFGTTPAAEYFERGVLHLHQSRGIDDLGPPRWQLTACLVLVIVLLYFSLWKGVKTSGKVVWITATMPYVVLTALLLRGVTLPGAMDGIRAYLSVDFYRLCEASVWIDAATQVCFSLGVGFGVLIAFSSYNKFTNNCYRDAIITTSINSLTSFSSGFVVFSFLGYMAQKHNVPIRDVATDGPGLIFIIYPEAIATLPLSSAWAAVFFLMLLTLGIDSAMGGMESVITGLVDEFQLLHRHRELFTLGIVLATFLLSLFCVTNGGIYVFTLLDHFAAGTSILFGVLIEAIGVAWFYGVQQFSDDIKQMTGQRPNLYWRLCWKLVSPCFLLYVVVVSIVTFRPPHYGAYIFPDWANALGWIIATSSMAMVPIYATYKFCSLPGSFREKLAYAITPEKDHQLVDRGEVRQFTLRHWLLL

SMILES | inhibition at 10 µM (dopamine transporter) [%] | % ambulation (mice; 30 mg/kg) | % ambulation (mice; 10 mg/kg)
Cl.NC(=O)NC(=O)OC[C@H](N)Cc1ccccc1 [Example 2, (2R)-2-Amino-3-phenylpropyl (aminocarbonyl)carbamate] | 50.1 | 118.7% (30 mg/kg, ip) | –
CC(C)N[C@@H](COC(=O)NC(N)=O)Cc1ccccc1.Cl [Example 3, (2R)-2-(Isopropylamino)-3-phenylpropyl (aminocarbonyl)carbamate] | 40.1 | 291.5% (30 mg/kg, ip) | –
CN(C)[C@@H](COC(=O)NC(N)=O)Cc1ccccc1.Cl [Example 4, (2R)-2-(Dimethylamino)-3-phenylpropyl (aminocarbonyl)carbamate] | 38.4 | 242.6% (30 mg/kg, ip) | –
NC(=O)NC(=O)OC[C@H](N)Cc1ccc(Cl)cc1Cl [Example 6, (2R)-2-Amino-3-(2,4-dichlorophenyl)propyl (aminocarbonyl)carbamate] | 20.4 | – | –
NC(=O)NC(=O)OC[C@H](N)Cc1ccc(Cl)c(Cl)c1 [Example 7, (2R)-2-Amino-3-(3,4-dichlorophenyl)propyl (aminocarbonyl)carbamate] | 41.2 | – | –
CN(C(N)=O)C(=O)OC[C@H](N)Cc1ccccc1 [Example 8] | 20.3 | 186.4% (30 mg/kg, ip) | –
NC(=O)NC(=O)OCC(N)Cc1ccc(Cl)cc1 (stereo not shown) [Example 9] | 42.8 | – | –
CN[C@@H](COC(=O)NC(N)=O)Cc1ccccc1 [Example 14] | 35.9 | – | –
CN(C(N)=O)C(=O)OC[C@@H](Cc1ccccc1)N(C)C [Example 15] | 55.5 | – | 202.2% (10 mg/kg, ip)
NC(=O)N(Cc1ccccc1)C(=O)OC[C@H](N)Cc1ccccc1 [Example 16, (2R)-2-Amino-3-phenylpropyl (aminocarbonyl)benzylcarbamate] | 20.8 | – | –
CCN(C(N)=O)C(=O)OC[C@H](N)Cc1ccccc1 [Example 17, (2R)-2-Amino-3-phenylpropyl(aminocarbonyl)ethylcarbamate] | 41.2 | – | –
CN(C(N)=O)C(=O)OC[C@H](N)Cc1ccccc1Cl [Example 18] | 17.5 | – | –
CN(C(N)=O)C(=O)OC[C@H](N)Cc1ccc(F)cc1 [Example 19, 2-Amino-3-(4-fluorophenyl)propyl(aminocarbonyl)methylcarbamate] | 34.3 | – | –
CN(C(N)=O)C(=O)OC[C@H](N)Cc1ccc(Cl)cc1Cl [Example 21, (2R)-2-amino-3-(2,4-dichlorophenyl)propyl (aminocarbonyl) Methylcarbamate] | 31.5 | – | –
CN(C(N)=O)C(=O)OC[C@H](N)Cc1ccc(Cl)c(Cl)c1 [Example 22, (2R)-2-Amino-3-(3,4-dichlorophenyl)propyl (aminocarbonyl) Methylcarbamate] | 37 | – | –
CN(C(N)=O)C(=O)OCC(N)Cc1ccccc1 (stereo not shown) [Example 24] | 45 | – | –
N[C@@H](COC(=O)NC(=O)Nc1ccccc1)Cc1ccccc1 [Example 29, (2R)-2-Amino-3-phenylpropyl (anilinocarbonyl)carbamate] | 50.7 | – | –

— patent US10888542B2 (SK BIOPHARMACEUTICALS CO., LTD., priority 2014, dated 2021)
